From PMC5218480 (PLoS ONE, 2017)

Tested on: MV-4-11 cells
Assay: Gene expression microarray analysis (Affymetrix PrimeView) and GSEA
Format: cell-based, human
Parameters: RFU PODN (11730768_x_at) / Fold change /veh PODN (11730768_x_at) / RFU LINC00158 (11744669_a_at) / Fold change /veh LINC00158 (11744669_a_at) / RFU DUSP10 (11751237_a_at) / Fold change /veh DUSP10 (11751237_a_at) / RFU ID3 (11757404_x_at) / Fold change /veh ID3 (11757404_x_at) / RFU PLEKHG5 (11737974_s_at) / Fold change /veh PLEKHG5 (11737974_s_at) / RFU LRRC4B (11730491_at) / Fold change /veh LRRC4B (11730491_at) / RFU GIMAP4 (11747438_a_at) / Fold change /veh GIMAP4 (11747438_a_at) / RFU KRT8 (11758183_x_at) / Fold change /veh KRT8 (11758183_x_at) / RFU CNN1 (11734310_a_at) / Fold change /veh CNN1 (11734310_a_at) / RFU VPS37D (11726825_at) / Fold change /veh VPS37D (11726825_at) / RFU C10orf10 (11716522_x_at) / Fold change /veh C10orf10 (11716522_x_at) / RFU KIR2DL2 /// KIR2DL4 /// KIR2DL5A /// KIR2DL5B /// KIR2DS1 /// KIR2DS2 /// KIR2DS3 /// KIR2DS4 /// KIR3DL3 /// KIR3DL3 /// KIR3DS1 (11738374_at) / Fold change /veh KIR2DL2 /// KIR2DL4 /// KIR2DL5A /// KIR2DL5B /// KIR2DS1 /// KIR2DS2 /// KIR2DS3 /// KIR2DS4 /// KIR3DL3 /// KIR3DL3 /// KIR3DS1 (11738374_at) / RFU C1QL1 (11718748_at) / Fold change /veh C1QL1 (11718748_at) / RFU TMPRSS4 (11747572_a_at) / Fold change /veh TMPRSS4 (11747572_a_at) / RFU HAMP (11756126_x_at) / Fold change /veh HAMP (11756126_x_at) / RFU RNFT2 (11725882_a_at) / Fold change /veh RNFT2 (11725882_a_at) / RFU NR4A2 (11747474_a_at) / Fold change /veh NR4A2 (11747474_a_at) / RFU ABCC12 (11746883_a_at) / Fold change /veh ABCC12 (11746883_a_at) / RFU TMEM136 (11760407_x_at) / Fold change /veh TMEM136 (11760407_x_at) / RFU CLDN22 /// WWC2 (11732394_at) / Fold change /veh CLDN22 /// WWC2 (11732394_at) / RFU HLA-DPB1 (11760878_x_at) / Fold change /veh HLA-DPB1 (11760878_x_at) / RFU SPINT1 (11716480_a_at) / Fold change /veh SPINT1 (11716480_a_at) / RFU GAP43 (11754022_s_at) / Fold change /veh GAP43 (11754022_s_at) / RFU A4GNT (11735810_at) / Fold change /veh A4GNT (11735810_at) / RFU PRB3 (11715151_x_at) / Fold change /veh PRB3 (11715151_x_at) / RFU TUBB4B (11761932_at) / Fold change /veh TUBB4B (11761932_at) / RFU CAPN14 (11732068_a_at) / Fold change /veh CAPN14 (11732068_a_at) / RFU TMCC2 (11721928_a_at) / Fold change /veh TMCC2 (11721928_a_at) / RFU IRGQ (11745062_a_at) / Fold change /veh IRGQ (11745062_a_at) / RFU FAM174B (11720279_a_at) / Fold change /veh FAM174B (11720279_a_at) / RFU TMPRSS4 (11748680_a_at) / Fold change /veh TMPRSS4 (11748680_a_at) / RFU FAM212B (11763350_a_at) / Fold change /veh FAM212B (11763350_a_at) / RFU PLEKHG5 (11743358_a_at) / Fold change /veh PLEKHG5 (11743358_a_at) / RFU ZSCAN30 (11745921_a_at) / Fold change /veh ZSCAN30 (11745921_a_at) / RFU CMKLR1 (11741424_a_at) / Fold change /veh CMKLR1 (11741424_a_at) / RFU LOC101060620 /// MAPK8IP1 (11723275_at) / Fold change /veh LOC101060620 /// MAPK8IP1 (11723275_at) / RFU SPTSSB (11747773_x_at) / Fold change /veh SPTSSB (11747773_x_at) / RFU PRSS12 (11739890_at) / Fold change /veh PRSS12 (11739890_at) / RFU BIN1 (11741810_x_at) / Fold change /veh BIN1 (11741810_x_at) / RFU WNT11 (11732464_a_at) / Fold change /veh WNT11 (11732464_a_at) / RFU C10orf10 (11716521_a_at) / Fold change /veh C10orf10 (11716521_a_at) / RFU C5orf56 (11738089_at) / Fold change /veh C5orf56 (11738089_at) / RFU CYB561 (11721691_x_at) / Fold change /veh CYB561 (11721691_x_at) / RFU ANKRD19P (11752326_a_at) / Fold change /veh ANKRD19P (11752326_a_at) / RFU OR2T12 /// OR2T33 /// OR2T8 (11738714_s_at) / Fold change /veh OR2T12 /// OR2T33 /// OR2T8 (11738714_s_at) / RFU VCAN (11748164_a_at) / Fold change /veh VCAN (11748164_a_at) / RFU JSRP1 (11732532_at) / Fold change /veh JSRP1 (11732532_at) / RFU KRTAP10-11 (11738290_x_at) / Fold change /veh KRTAP10-11 (11738290_x_at) / RFU MYO3A (11730013_a_at) / Fold change /veh MYO3A (11730013_a_at) / RFU EBF3 (11725865_a_at) / Fold change /veh EBF3 (11725865_a_at) / RFU CAMK2N1 (11719241_x_at) / Fold change /veh CAMK2N1 (11719241_x_at) / RFU C5orf56 (11738088_a_at) / Fold change /veh C5orf56 (11738088_a_at) / RFU OLFML3 (11715873_a_at) / Fold change /veh OLFML3 (11715873_a_at) / RFU LOC100653217 /// NTM (11731650_a_at) / Fold change /veh LOC100653217 /// NTM (11731650_a_at) / RFU MAPK11 (11762145_a_at) / Fold change /veh MAPK11 (11762145_a_at) / RFU FIZ1 (11724087_x_at) / Fold change /veh FIZ1 (11724087_x_at) / RFU OASL (11726364_x_at) / Fold change /veh OASL (11726364_x_at) / RFU SOX15 (11748057_x_at) / Fold change /veh SOX15 (11748057_x_at) / RFU CD79A (11719716_a_at) / Fold change /veh CD79A (11719716_a_at) / RFU HIST1H1D (11736915_at) / Fold change /veh HIST1H1D (11736915_at) / RFU CASKIN2 (11723855_a_at) / Fold change /veh CASKIN2 (11723855_a_at) / RFU LOC730098 (11760151_x_at) / Fold change /veh LOC730098 (11760151_x_at) / RFU OR4N2 (11742367_at) / Fold change /veh OR4N2 (11742367_at) / RFU PRRT2 (11749266_a_at) / Fold change /veh PRRT2 (11749266_a_at) / RFU SNX32 (11753110_a_at) / Fold change /veh SNX32 (11753110_a_at) / RFU CDHR5 (11726645_a_at) / Fold change /veh CDHR5 (11726645_a_at) / RFU RCAN1 (11760418_a_at) / Fold change /veh RCAN1 (11760418_a_at) / RFU FAM167A (11723789_a_at) / Fold change /veh FAM167A (11723789_a_at) / RFU FAM26E (11764081_at) / Fold change /veh FAM26E (11764081_at) / RFU ISYNA1 (11749810_s_at) / Fold change /veh ISYNA1 (11749810_s_at) / RFU ACY1 (11761880_at) / Fold change /veh ACY1 (11761880_at) / RFU 11764098_at / Fold change /veh 11764098_at / RFU SAMD14 (11745864_x_at) / Fold change /veh SAMD14 (11745864_x_at) / RFU NPB (11741838_a_at) / Fold change /veh NPB (11741838_a_at) / RFU TMPRSS6 (11731388_a_at) / Fold change /veh TMPRSS6 (11731388_a_at) / RFU KRTAP10-2 (11738614_at) / Fold change /veh KRTAP10-2 (11738614_at) / RFU ARHGAP8 /// PRR5-ARHGAP8 (11727945_x_at) / Fold change /veh ARHGAP8 /// PRR5-ARHGAP8 (11727945_x_at) / RFU KRTAP5-7 /// NADSYN1 (11734609_at) / Fold change /veh KRTAP5-7 /// NADSYN1 (11734609_at) / RFU RASL12 (11751679_a_at) / Fold change /veh RASL12 (11751679_a_at) / RFU CDKN2B (11736163_a_at) / Fold change /veh CDKN2B (11736163_a_at) / RFU PRF1 (11729649_at) / Fold change /veh PRF1 (11729649_at) / RFU, ZNF638 /// ZNF638-IT1 / Fold change vs veh, ZNF638 /// ZNF638-IT1 / RFU, PANK3 / Fold change vs veh, PANK3 / RFU, SH3YL1 / Fold change vs veh, SH3YL1 / RFU, ZEB2 / Fold change vs veh, ZEB2 / RFU, NRIP1 / Fold change vs veh, NRIP1 / RFU, PTTG1IP / Fold change vs veh, PTTG1IP / RFU, CAPN2 / Fold change vs veh, CAPN2 / RFU, MED14 / Fold change vs veh, MED14 / RFU, SNORA58 / Fold change vs veh, SNORA58 / RFU, C1orf63 / Fold change vs veh, C1orf63 / RFU, LRRFIP1 / Fold change vs veh, LRRFIP1 / RFU, NDUFAF7 / Fold change vs veh, NDUFAF7 / RFU, SLC12A2 / Fold change vs veh, SLC12A2 / RFU, IBTK / Fold change vs veh, IBTK / RFU, ESF1 / Fold change vs veh, ESF1 / Fold change vs veh, TMEM50B / RFU, TAOK1 / Fold change vs veh, TAOK1 / RFU, ACBD3 / Fold change vs veh, ACBD3 / RFU, TMA16 / Fold change vs veh, TMA16 / RFU, RWDD3 / Fold change vs veh, RWDD3 / RFU, BCAT1 / Fold change vs veh, BCAT1 / RFU, EDEM3 / Fold change vs veh, EDEM3 / RFU, TMEM33 / Fold change vs veh, TMEM33 / RFU, WDR75 / Fold change vs veh, WDR75 / RFU, AHCTF1 / Fold change vs veh, AHCTF1 / RFU, TFRC / Fold change vs veh, TFRC / RFU, ZDHHC17 / Fold change vs veh, ZDHHC17 / RFU, NOM1 / Fold change vs veh, NOM1 / RFU, ARL8B / Fold change vs veh, ARL8B / RFU, ZBTB11 / Fold change vs veh, ZBTB11 / RFU, TAMM41 / Fold change vs veh, TAMM41 / RFU, KIAA1704 /// LOC100996395 / Fold change vs veh, KIAA1704 /// LOC100996395 / RFU, ING1 / Fold change vs veh, ING1 / RFU, TRMT61B / Fold change vs veh, TRMT61B / RFU, FUBP3 / Fold change vs veh, FUBP3 / RFU, TP53 / Fold change vs veh, TP53 / RFU, TNKS2 / Fold change vs veh, TNKS2 / RFU, ZFP14 / Fold change vs veh, ZFP14 / RFU, ACTR2 / Fold change vs veh, ACTR2 / RFU, PPP3R1 / Fold change vs veh, PPP3R1 / RFU, PIK3R1 / Fold change vs veh, PIK3R1 / RFU, HNRNPA1 / Fold change vs veh, HNRNPA1 / RFU, RNF170 / Fold change vs veh, RNF170 / RFU, ZNF28 / Fold change vs veh, ZNF28 / RFU, RNGTT / Fold change vs veh, RNGTT / RFU, OGT / Fold change vs veh, OGT / RFU, BRD1 / Fold change vs veh, BRD1 / RFU, MARS / Fold change vs veh, MARS / RFU, ZNF655 / Fold change vs veh, ZNF655 / RFU, FAHD1 / Fold change vs veh, FAHD1 / RFU, BDP1 / Fold change vs veh, BDP1 / RFU, LRRCC1 / Fold change vs veh, LRRCC1 / RFU, ARID1A / Fold change vs veh, ARID1A / RFU, ZNF146 / Fold change vs veh, ZNF146 / RFU, ZNF330 / Fold change vs veh, ZNF330 / RFU, GPN3 / Fold change vs veh, GPN3 / RFU, C9orf123 / Fold change vs veh, C9orf123 / RFU, N4BP2L2 / Fold change vs veh, N4BP2L2 / RFU, ARFIP1 / Fold change vs veh, ARFIP1 / RFU, FAM179B / Fold change vs veh, FAM179B / RFU, BCL10 / Fold change vs veh, BCL10 / RFU, UHRF1BP1L / Fold change vs veh, UHRF1BP1L / RFU, BET1 / Fold change vs veh, BET1 / RFU, CNOT2 / Fold change vs veh, CNOT2 / RFU, ZNF268 / Fold change vs veh, ZNF268 / Fold change vs veh, ZNF507 / RFU, DGCR2 / Fold change vs veh, DGCR2 / RFU, WDSUB1 / Fold change vs veh, WDSUB1 / Fold change vs veh, HSP90B1 /// MIR3652 / RFU, ADSS / Fold change vs veh, ADSS / RFU, GK / Fold change vs veh, GK / RFU, ZNF148 / Fold change vs veh, ZNF148 / RFU, TAF9 / Fold change vs veh, TAF9 / RFU, SLC1A5 / Fold change vs veh, SLC1A5 / RFU, SLMO2 / Fold change vs veh, SLMO2 / RFU, ABCC4 / Fold change vs veh, ABCC4 / RFU, LOC101060439 /// RAP1B / Fold change vs veh, LOC101060439 /// RAP1B / RFU, RFX7 / Fold change vs veh, RFX7 / RFU, GTPBP10 / Fold change vs veh, GTPBP10 / RFU, CNEP1R1 / Fold change vs veh, CNEP1R1 / RFU, BIVM-ERCC5 /// ERCC5 / Fold change vs veh, BIVM-ERCC5 /// ERCC5 / RFU, ILF3 / Fold change vs veh, ILF3 / RFU 11762660_at / Fold change /veh 11762660_at / RFU VCAN (11757783_s_at) / Fold change /veh VCAN (11757783_s_at) / RFU DDX43 (11728927_at) / Fold change /veh DDX43 (11728927_at) / RFU KRT8 (11758188_x_at) / Fold change /veh KRT8 (11758188_x_at) / RFU NKD1 (11759106_at) / Fold change /veh NKD1 (11759106_at) / RFU SRD5A1 (11742802_a_at) / Fold change /veh SRD5A1 (11742802_a_at) / RFU TPSAB1 /// TPSB2 (11721975_s_at) / Fold change /veh TPSAB1 /// TPSB2 (11721975_s_at) / RFU GSTM3 (11746129_a_at) / Fold change /veh GSTM3 (11746129_a_at) / RFU IL23R (11737362_x_at) / Fold change /veh IL23R (11737362_x_at) / RFU TMEM51 (11727254_a_at) / Fold change /veh TMEM51 (11727254_a_at) / RFU PIWIL2 (11732686_x_at) / Fold change /veh PIWIL2 (11732686_x_at) / RFU ORM1 (11744905_x_at) / Fold change /veh ORM1 (11744905_x_at) / RFU CCDC152 (11743942_at) / Fold change /veh CCDC152 (11743942_at) / RFU ECM1 (11717891_a_at) / Fold change /veh ECM1 (11717891_a_at) / RFU IL23R (11748794_a_at) / Fold change /veh IL23R (11748794_a_at) / RFU TNFAIP8L3 (11732012_x_at) / Fold change /veh TNFAIP8L3 (11732012_x_at) / RFU MBOAT4 (11741988_at) / Fold change /veh MBOAT4 (11741988_at) / RFU 11764193_at / Fold change /veh 11764193_at / RFU TMEM53 (11763286_at) / Fold change /veh TMEM53 (11763286_at) / RFU MAGEB2 (11727129_at) / Fold change /veh MAGEB2 (11727129_at) / RFU TMEM200A (11744735_a_at) / Fold change /veh TMEM200A (11744735_a_at) / RFU CCDC152 (11751479_a_at) / Fold change /veh CCDC152 (11751479_a_at) / RFU FAM211A (11726209_a_at) / Fold change /veh FAM211A (11726209_a_at) / RFU RGS16 (11746705_a_at) / Fold change /veh RGS16 (11746705_a_at) / RFU VCAN (11755009_s_at) / Fold change /veh VCAN (11755009_s_at) / RFU RHOB (11743442_s_at) / Fold change /veh RHOB (11743442_s_at) / RFU RGS16 (11720943_a_at) / Fold change /veh RGS16 (11720943_a_at) / RFU RGS16 (11720944_at) / Fold change /veh RGS16 (11720944_at) / RFU, VPS4B / Fold change vs veh, VPS4B / RFU, CREB1 / Fold change vs veh, CREB1 / RFU, DNAJC13 / Fold change vs veh, DNAJC13 / RFU, GNAQ / Fold change vs veh, GNAQ / RFU, CDK5R1 / Fold change vs veh, CDK5R1 / RFU, ZRANB3 / Fold change vs veh, ZRANB3 / RFU, CUL4A / Fold change vs veh, CUL4A / RFU, CCNY / Fold change vs veh, CCNY / RFU, UFL1 / Fold change vs veh, UFL1 / RFU, COG3 / Fold change vs veh, COG3 / RFU, DIAPH2 / Fold change vs veh, DIAPH2 / RFU, SKA2 / Fold change vs veh, SKA2 / RFU, AFF3 / Fold change vs veh, AFF3 / RFU, LMF1 / Fold change vs veh, LMF1 / RFU, IPO11 / Fold change vs veh, IPO11 / RFU, DFFB / Fold change vs veh, DFFB / RFU, FOXP1 / Fold change vs veh, FOXP1 / RFU, CARD8 / Fold change vs veh, CARD8 / RFU, STRN3 / Fold change vs veh, STRN3 / RFU, ADK / Fold change vs veh, ADK / RFU, RASSF2 / Fold change vs veh, RASSF2 / RFU, WIPF1 / Fold change vs veh, WIPF1 / RFU, LARP1B / Fold change vs veh, LARP1B / RFU, RASA1 / Fold change vs veh, RASA1 / RFU, RB1 / Fold change vs veh, RB1 / RFU, PPFIA1 / Fold change vs veh, PPFIA1 / RFU, MAT2A / Fold change vs veh, MAT2A / RFU, CCT5 / Fold change vs veh, CCT5 / RFU, WDR92 / Fold change vs veh, WDR92 / RFU, CUX1 / Fold change vs veh, CUX1 / RFU, TTC7A / Fold change vs veh, TTC7A / RFU, TMEM135 / Fold change vs veh, TMEM135 / RFU, DEPTOR / Fold change vs veh, DEPTOR / RFU, CPM / Fold change vs veh, CPM / RFU, DNAJB6 / Fold change vs veh, DNAJB6 / RFU, CACNA2D3 / Fold change vs veh, CACNA2D3 / RFU, DTX4 / Fold change vs veh, DTX4 / RFU, TFCP2 / Fold change vs veh, TFCP2 / RFU, GMCL1 /// GMCL1P1 / Fold change vs veh, GMCL1 /// GMCL1P1 / RFU, AEBP2 / Fold change vs veh, AEBP2 / RFU, SNHG1 /// SNORD22 /// SNORD25 /// SNORD26 /// SNORD27 /// SNORD28 /// SNORD29 /// SNORD31 / Fold change vs veh, SNHG1 /// SNORD22 /// SNORD25 /// SNORD26 /// SNORD27 /// SNORD28 /// SNORD29 /// SNORD31 / Fold change (Aza/veh), C12orf56 (ProbeSet 11735607_a_at) / Fold change (ACY-1035/veh), C12orf56 (ProbeSet 11735607_a_at) / Fold change (Aza/veh), FGFR1OP (ProbeSet 11751329_s_at) / Fold change (ACY-1035/veh), FGFR1OP (ProbeSet 11751329_s_at) / Fold change (Aza/veh), VPS36 (ProbeSet 11739960_a_at) / Fold change (ACY-1035/veh), VPS36 (ProbeSet 11739960_a_at) / RFU SYPL1 (11715823_x_at) / Fold change /veh SYPL1 (11715823_x_at) / RFU IGFBP7 (11715501_s_at) / Fold change /veh IGFBP7 (11715501_s_at) / RFU REEP3 (11722064_at) / Fold change /veh REEP3 (11722064_at) / RFU IGLL1 (11728026_x_at) / Fold change /veh IGLL1 (11728026_x_at): dose or concentration left out as unconfirmed
Conditions: ProbeSet 11723930_at; LIST D

Nc1ncn([C@@H]2O[C@H](CO)[C@@H](O)[C@H]2O)c(=O)n1 [azacitidine]
Fold change vs veh, CCT5: 0.69
